“Also recorded” adds a separate entry of the source.
Tests used:
[1] = system: HBMVECs; assay: PMA-induced oxidative stress in HBMVECs with or without NOX inhibitor; ROS, HO-1 and cilia proteins by flow cytometry (MFI); assay type: cell-based, human
Description: Primary HBMVECs (Cell Systems Corporation catalog ACBRI 376) and HUVECs (Glyco Tech) were maintained at 37° C. in a 5% CO2 incubator in endothelial cell complete medium (Promocell, catalog C22010). As per vendor's description, cells were isolated from the cortex region of the brain from a pediatric donor. The cells were isolated without using antibody labeling to preserve the cells' natural properties for enhanced biological relevance. LL-CPK1 (CL101.1TM) porcine renal epithelial cells from proximal tubule were obtained from ATCC. All cell culture wells were seeded equally, and wells were randomized to control versus experimental conditions with duplicates or triplicates per condition. All experiments were performed between passages 4 and 6. Cells that had reached approximately 90% confluence were used in the shear stress experiment. For ROS quantification experiments, cells were treated with PMA (Sigma, catalog P8139-5MG) at a concentration of 50 ng/mL for 1 hour. To inhibit ROS production in respective experimental groups, cells were treated with 20 μM NOX inhibitor VAS 2870 (Sigma, catalog SML0273-5MG) 1 hour prior to PMA treatment.
Single-cell suspensions were washed 3 times with FACS buffer (1×PBS with 5% FBS and 0.1% NaN3) at 300 g for 5 minutes and were subsequently incubated with Live/Dead fixable yellow dead cell stain as per manufacturer's protocol, to exclude any dead cells, wherever applicable. Then, cells were fixed and permeabilized using Cytofix/Cytoperm buffer (BD, catalog 554722) or transcription factor buffer set (BD, catalog 562574) and stained for the following proteins: ARL13b, IFT88, Inversin, Dynein, γ-tubulin, Alk1, KLF4, HO-1, NRF2, and bACTIN. Suitable secondary reagents were used to detect the respective proteins. Primary antibodies were diluted 1:50, and secondary antibodies were diluted 1:500. BD perm wash buffer (catalog 554723) was used for antibody dilutions and washing. Primary antibodies were incubated for 45 minutes and secondaries for 30 minutes at 4° C. Suitable secondary antibody controls were included. To quantify total ROS, assay kit was used as per the manufacturer's instruction (Thermo Fisher Scientific, catalog 88-5930-74). After the completion of staining, cells were resuspended in FACS buffer. Stained cells were run on a flow cytometer (BD LSRFortessa). Sample acquisition was done using FACSDiva software (BD) with subsequent analysis on FlowJo software. To determine the presence of the ciliary protein ARL13b on human RBCs, unlabeled RBCs prior to infusion into the variable height flow chamber, and effluent containing RBCs collected postflow and RBCs postinteraction with brain ECs, were labeled with FITC-conjugated Arl13b antibody for 30 minutes on ice. RBCs were then washed and tested by flow cytometric analysis as previously described (49). To determine whether ROS generation in brain ECs can be increased by sickle RBCs and contributes to deciliation, slides coated with brain ECs were sham-treated or pretreated with the NOX inhibitor apocynin at 10 μM for 1 hour at 37° C., washed, and fitted into the flow chamber. Treated brain ECs were then exposed to unlabeled sickle RBCs for 10 minutes. Sickle RBCs were lysed with RBC lysis buffer and brain ECs scraped from the glass slide for testing for ROS levels using CM-H2-DCFDA (Invitrogen) as described previously in detail (50). One hundred thousand events per sample were acquired and tested by flow cytometric analysis. In separate experiments, and as described above, unlabeled sickle RBCs were tested by flow cytometry for ARL13b ciliary protein binding prior to infusion into the chamber (baseline levels) and postflow and once sickle RBCs interacted with brain ECs treated with 10 μM apocynin.

[2] = system: ARL13b on SS RBCs; assay: ARL13b bound to SS RBCs before and after flow chamber interaction with apocynin-pretreated brain ECs (flow cytometry); assay type: cell-based, human; conditions: ECs treated with 10 μM apocynin
Description: HBMVECs were cultured until they reached confluence on clear glass slides precoated with 2% gelatin. Slides coated with brain ECs were washed, then fit into a variable height flow chamber and tested for their ability to support adhesion of RBCs. The flow chamber was mounted on the stage of an inverted phase contrast microscope (Diaphot, Nikon Inc.) connected to a thermoplate (Tokai Hit Co., Ltd.) set at 37° C. Fluorescence-labeled RBCs suspended at 0.2% (v/v) in PBS with Ca^2+ and Mg^2+ were infused into the flow chamber and allowed to adhere to brain ECs for 10 minutes without flow. Before exposure to flow, a minimum of 3 fields at each of 7 different locations along a line oriented to future flow were examined, and the total number of fluorescent cells was counted. Fluid flow (PBS with Ca^2+ and Mg^2+) with a calibrated syringe pump was then started for a period of 15 minutes. Effluent was collected and tested by flow cytometry for cilia shedding from brain ECs by RBC contact. After exposure to flow, the fields were examined, and the number of fluorescent adherent RBCs to brain ECs was counted. The fraction of adherent cells was presented as number of cells attached per field after exposure to flow/total number of cells present per field before flow. […] To quantify total ROS, assay kit was used as per the manufacturer's instruction (Thermo Fisher Scientific, catalog 88-5930-74). […]

[3] = system: Human brain microvascular ECs; assay: ROS generation in brain ECs exposed to sickle RBCs (CM-H2-DCFDA, flow cytometry); assay type: cell-based; conditions: brain ECs pretreated with apocynin 10 μM for 1 hour, then exposed to SS RBCs for 10 minutes; P<0.0001
Description: Single-cell suspensions were washed 3 times with FACS buffer (1×PBS with 5% FBS and 0.1% NaN3) at 300 g for 5 minutes and were subsequently incubated with Live/Dead fixable yellow dead cell stain as per manufacturer's protocol, to exclude any dead cells, wherever applicable. Then, cells were fixed and permeabilized using Cytofix/Cytoperm buffer (BD, catalog 554722) or transcription factor buffer set (BD, catalog 562574) and stained for the following proteins: ARL13b, IFT88, Inversin, Dynein, γ-tubulin, Alk1, KLF4, HO-1, NRF2, and bACTIN. Suitable secondary reagents were used to detect the respective proteins. Primary antibodies were diluted 1:50, and secondary antibodies were diluted 1:500. BD perm wash buffer (catalog 554723) was used for antibody dilutions and washing. Primary antibodies were incubated for 45 minutes and secondaries for 30 minutes at 4° C. Suitable secondary antibody controls were included. To quantify total ROS, assay kit was used as per the manufacturer's instruction (Thermo Fisher Scientific, catalog 88-5930-74). After the completion of staining, cells were resuspended in FACS buffer. Stained cells were run on a flow cytometer (BD LSRFortessa). Sample acquisition was done using FACSDiva software (BD) with subsequent analysis on FlowJo software. […]

[4] = PMA 50 ng/mL for 1 hour vs untreated
[5] = 20 μM VAS2870 1 hour prior to PMA 50 ng/mL

CCCCCCCCCCCCCC(=O)O[C@@H]1[C@@H](C)[C@@]2(O)[C@@H](C=C(CO)C[C@]3(O)C(=O)C(C)=C[C@@H]23)[C@@H]2C(C)(C)[C@]12OC(C)=O [PMA]
HO-1 levels [1, 4]: lower | cilia-associated proteins NRF2, IFT88 and γ-tubulin levels [1, 4]: downregulated; also recorded: reduced; also recorded: decreased | total ROS [1, 4]: induced ROS; also recorded: enhanced total ROS

c1ccc(Cn2nnc3c(Sc4nc5ccccc5o4)ncnc32)cc1 [VAS2870]
HO-1 levels [1, 5]: restored to control levels | cilia-associated proteins NRF2, IFT88 and γ-tubulin levels [1, 5]: rescued; also recorded: restored to baseline; also recorded: returned to baseline | total ROS ([1]; 20 μM VAS2870 1 hour prior to PMA 50 ng/mL, vs PMA alone): partially attenuated; also recorded: quenched ROS production

COc1cc(C(C)=O)ccc1O [apocynin]
cilia protein expression on sickle RBCs exposed to apocynin-treated brain ECs (in words) [2]: decreased cilia protein expression | ARL13b expression on SS RBCs after exposure to apocynin-treated brain ECs ([2]; before exposure SS RBCs showed approximately 35% ARL13b, P<0.05, n=6): approximately 20% | ROS generation in ECs [3]: reduced ROS generation in ECs to baseline levels

Source: US20240255521A1, “Cilia Protein as Biomarkers and Methods of Use” (The Medical College of Wisconsin, Inc., priority 2021, published 2024)
